We go through nine compounds from patent US10435431B2, “3,3 disubstituted 19-nor pregnane compounds, compositions, and uses thereof” (Sage Therapeutics, Inc., priority 2011, dated 2019).

Assay [1] deals with [35S]-TBPS binding, rat brain cortical membranes. Description: Steroid inhibition of [35S]-TBPS binding. As to conditions: 2 nM [35S]-TBPS, in the presence of 5 μM GABA. The procedure: Steroid Inhibition of TBPS Binding
TBPS binding assays using rat brain cortical membranes in the presence of 5 μM GABA has been described (Gee et al, J. Pharmacol. Exp. Ther. 1987, 241, 346-353; Hawkinson et al, Mol. Pharmacol. 1994, 46, 977-985).
Briefly, cortices are rapidly removed following decapitation of carbon dioxide-anesthetized Sprague-Dawley rats (200-250 g). The cortices are homogenized in 10 volumes of ice-cold 0.32 M sucrose using a glass/teflon homogenizer and centrifuged at 1500×g for 10 min at 4° C. The resultant supernatants are centrifuged at 10,000×g for 20 min at 4° C. to obtain the P2 pellets. The P2 pellets are resuspended in 200 mM NaCl/50 mM Na—K phosphate pH 7.4 buffer and centrifuged at 10,000×g for 10 min at 4° C. This ishing procedure is repeated twice and the pellets are resuspended in 10 volumes of buffer. Aliquots (100 μL) of the membrane suspensions are incubated with 2 nM [^35S]-TBPS and 5 μL aliquots of test drug dissolved in dimethyl sulfoxide (DMSO) (final 0.5%) in the presence of 5 μM GABA. The incubation is brought to a final volume of 1.0 mL with buffer. Nonspecific binding is determined in the presence of 2 μM unlabeled TBPS and ranged from 15 to 25%. Following a 90 min incubation at room temp, the assays are terminated by filtration through glass fiber filters (Schleicher and Schuell No. 32) using a cell harvester (Brandel) and rinsed three times with ice-cold buffer. Filter bound radioactivity is measured by liquid scintillation spectrometry. Non-linear curve fitting of the overall data for each drug averaged for each concentration is done using Prism (GraphPad). […] The concentration of test compound producing 50% inhibition (IC50) of specific binding and the maximal extent of inhibition (Imax) are determined for the individual experiments with the same model used for the overall data and then the means±SEM.s of the individual experiments are calculated.
Various compounds are or can be screened to determine their potential as modulators of [^35S]-TBPS binding in vitro. These assays are or can be performed in accordance with the above discussed procedures.

Assay [2] concerns the target T1, Recombinant α1β2γ2 GABAA Receptors (Homo sapiens, UniProt P14867+P47870).
T1 construct: expressed in transfected cells; host or cells: Ltk cells
Put plainly: Patch clamp electrophysiology of recombinant α1β2γ2 GABAA receptors, potentiation of GABA mediated currents. In kind it is cell-based. The note with it: Ltk cells, GABA EC10=0.5 μM, whole cell patch clamp; for % potentiation at 100 nM: test article 100 nM; for % potentiation at 1000 nM: test article 1000 nM; for % potentiation at 10000 nM: test article 10000 nM. As to the method:
Patch Clamp Electrophysiology of Recombinant α1β2γ2 GABAA Receptors
Cellular electrophysiology is used to measure in vitro potency and efficacy of our GABAA receptor modulators in Ltk cells. Each compound is tested for its ability to affect GABA mediated currents at a submaximal agonist dose (GABA EC10=0.5 μM) in a whole cell patch clamp technique using a EPC-10, HEKA Electronics Amplifier and PatchMaster software. These experiments measure potency, efficacy (Emax), direct gating properties and acute desensitization. Test article is added at 0.1, 1.0 and 10 uM.
On the technique in general: Patch clamp records ionic current or voltage across a cell membrane.

T1 sequence (P14867 28-456): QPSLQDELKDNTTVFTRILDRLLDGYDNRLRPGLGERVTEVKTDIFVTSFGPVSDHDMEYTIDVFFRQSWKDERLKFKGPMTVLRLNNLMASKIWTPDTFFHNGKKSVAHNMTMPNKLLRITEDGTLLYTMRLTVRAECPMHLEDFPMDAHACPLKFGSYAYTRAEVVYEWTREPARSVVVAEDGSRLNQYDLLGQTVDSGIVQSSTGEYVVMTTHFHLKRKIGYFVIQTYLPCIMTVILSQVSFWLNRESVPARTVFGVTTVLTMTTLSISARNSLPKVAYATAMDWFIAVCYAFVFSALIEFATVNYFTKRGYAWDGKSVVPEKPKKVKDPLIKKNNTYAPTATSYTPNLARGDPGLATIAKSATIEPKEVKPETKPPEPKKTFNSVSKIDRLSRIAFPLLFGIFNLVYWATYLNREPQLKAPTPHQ
T1 sequence (P47870 25-512 limits assumed): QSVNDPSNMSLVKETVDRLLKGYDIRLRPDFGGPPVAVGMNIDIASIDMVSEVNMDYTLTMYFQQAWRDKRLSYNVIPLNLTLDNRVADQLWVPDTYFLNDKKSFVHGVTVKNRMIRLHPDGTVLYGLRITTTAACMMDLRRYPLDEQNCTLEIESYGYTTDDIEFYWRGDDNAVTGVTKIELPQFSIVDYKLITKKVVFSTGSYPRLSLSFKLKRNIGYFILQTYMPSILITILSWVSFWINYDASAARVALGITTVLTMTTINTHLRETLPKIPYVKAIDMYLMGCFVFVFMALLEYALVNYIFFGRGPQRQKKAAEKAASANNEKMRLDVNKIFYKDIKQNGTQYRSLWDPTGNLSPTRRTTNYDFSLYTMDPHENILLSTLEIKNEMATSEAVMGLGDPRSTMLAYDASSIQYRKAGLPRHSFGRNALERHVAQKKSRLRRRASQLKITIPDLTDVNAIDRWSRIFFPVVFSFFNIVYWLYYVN
T1 sequence (P18507 40-475 partner): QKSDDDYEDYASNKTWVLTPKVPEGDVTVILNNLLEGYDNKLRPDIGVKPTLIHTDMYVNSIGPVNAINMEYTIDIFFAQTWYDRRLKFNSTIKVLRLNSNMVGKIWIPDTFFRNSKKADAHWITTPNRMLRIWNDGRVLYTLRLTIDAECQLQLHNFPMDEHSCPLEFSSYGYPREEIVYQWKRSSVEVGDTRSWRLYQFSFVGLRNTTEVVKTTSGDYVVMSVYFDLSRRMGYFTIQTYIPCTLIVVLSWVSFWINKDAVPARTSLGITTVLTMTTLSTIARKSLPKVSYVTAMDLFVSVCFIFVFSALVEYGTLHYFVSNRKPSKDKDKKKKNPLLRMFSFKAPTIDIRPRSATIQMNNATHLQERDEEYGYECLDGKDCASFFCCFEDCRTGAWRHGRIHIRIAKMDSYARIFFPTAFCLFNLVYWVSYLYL

The term IC50 denotes the concentration needed to halve the response being measured. As for `CC(=O)[C@H]1CC[C@H]2[C@@H]3CC[C@@H]4C[C@](O)(CF)CC[C@@H]4[C@H]3CC[C@]12C`, in assay [1], the IC50 stood at 100 nM.
As for `C[C@@]1(O)CC[C@H]2[C@H](CC[C@@H]3[C@@H]2CC[C@]2(C)[C@@H](C(=O)CO)CC[C@@H]32)C1`, in assay [2], the “% potentiation at 100 nM” value is 101% and the “% potentiation at 1000 nM” value is 163%. The IC50 in assay [1] stood at 86 nM.
Turning to `COC[C@@]1(O)CC[C@H]2[C@H](CC[C@@H]3[C@@H]2CC[C@]2(C)[C@@H](C(=O)CO)CC[C@@H]32)C1`, the IC50 in assay [1] stood at 170 nM.
`C[C@@]1(O)CC[C@H]2[C@@H](CC[C@@H]3[C@@H]2CC[C@]2(C)[C@@H](C(=O)CO)CC[C@@H]32)C1`: in assay [2], the “% potentiation at 1000 nM” value came out at 130% and the “% potentiation at 10000 nM” value is 227%. Further, in assay [1], the 50% inhibitory concentration (IC50) turned out to be 220 nM.
Turning to `C[C@]12CC[C@H]3[C@@H](CC[C@H]4C[C@@](O)(C(F)F)CC[C@@H]43)[C@@H]1CC[C@@H]2C(=O)CO`, in assay [2], the “% potentiation at 1000 nM” value is listed as 0% and the “% potentiation at 10000 nM” value is 100%. Moreover, the IC50 in assay [1] is over 10000 nM.
Consider `CC(=O)[C@H]1CC[C@H]2[C@@H]3CC[C@H]4C[C@](C)(O)CC[C@@H]4[C@H]3CC[C@]12C`, for which, in assay [2], the “% potentiation at 100 nM” value is reported as 80%, the “% potentiation at 1000 nM” value is given as 157% and the “% potentiation at 10000 nM” value came to 270%. For the same compound, the IC50 in assay [1] amounted to 93 nM.
With `COC[C@@]1(O)CC[C@H]2[C@H](CC[C@@H]3[C@@H]2CC[C@]2(C)[C@@H](C(C)=O)CC[C@@H]32)C1`, in assay [1], the IC50 is 41 nM.
Consider `COC[C@@]1(O)CC[C@H]2[C@@H](CC[C@@H]3[C@@H]2CC[C@]2(C)[C@@H](C(=O)CO)CC[C@@H]32)C1`, for which the IC50 in assay [1] was found to be 94 nM.
On the same count and under the same terms, then `CC(=O)[C@H]1CC[C@H]2[C@@H]3CC[C@@H]4C[C@@](O)(C(F)F)CC[C@@H]4[C@H]3CC[C@]12C`, with 33 nM.
